Test results: the supplement of paper PMC11208160

Experiment: recombinant UMI read abundance after kanamycin selection (control-corrected) (log10(CPM+1)); higher = more efficient recombination; extreme values may be limits of the assay; sequences stand for … in AGTGCAGAGAAAATCGGCCAGTTTTCTCTGCCTGCAGTCCGCATGCCGTGGGACCCCTTGGGTTCTAACCTGTTGCCTAGATTTATGCAGCGGACTGCCTTTCTCCCAAAGTGATAAACCGG…AGGTTGGTTTCACT; site = the 11-nt donor
Protocol: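 Pooled E. coli donor-specificity screen for the IS621 bridge recombinase. Each library member carries a reprogrammed 11-nt donor and a full-length LE bridge RNA expressed in cis from the natural promoter, with a paired donor-binding loop (8-nt LDG + 4-nt RDG) and a target-binding loop fixed to T5. It is co-electroporated with a T5 target plasmid; recombinase is induced with 0.07 mM IPTG and recombinants are selected on kanamycin. UMIs are counted as CPM, averaged over two biological replicates and corrected by the unselected control. Molecule = full bridge RNA written as DNA, built from the T5 scaffold: LDG = donor specificity nt 1-8, RDG = reverse complement of nt 8-11.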
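Note: IS621 bridge recombinase in Escherichia coli cells against a fixed T5 target plasmid.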

Sequence	recombinant UMI read abundance (log10)
AATGTAACATGGACCGGTTTTCCCGGTAATCCGTATTTGCT (site GATGTAACTAG)	1.57
AATGTAACATGGACCGGTTTTCCCGGTAATCCGTATTTGCT (site TATGTAACTAG)	2.39
AATGTGACATGGACCGGTTTTCCCGGTAATCCGTATTTGCT (site AATGTAACTAG)	2.04
AATGTGACATGGACCGGTTTTCCCGGTAATCCGTATTTGCT (site AATGTCACTAG)	0.731
AATGTGACATGGACCGGTTTTCCCGGTAATCCGTATTTGCT (site AATGTGACTAG)	2.65
AATGTGACATGGACCGGTTTTCCCGGTAATCCGTATTTGCT (site AATGTTACTAG)	0.751
AATGTGTCATGGACCGGTTTTCCCGGTAATCCGTATTTGAA (site AATGTGTCTAT)	0.324
AATGTGTCATGGACCGGTTTTCCCGGTAATCCGTATTTGAA (site AATGTGTCTCT)	0.204
AATGTGTCATGGACCGGTTTTCCCGGTAATCCGTATTTGAA (site AATGTGTCTGT)	0
AATGTGTCATGGACCGGTTTTCCCGGTAATCCGTATTTGAA (site AATGTGTCTTT)	2.11
AATGTGTCATGGACCGGTTTTCCCGGTAATCCGTATTTGAC (site AAAGTGTCTGT)	0
AATGTGTCATGGACCGGTTTTCCCGGTAATCCGTATTTGAC (site AACGTGTCTGT)	0
AATGTGTCATGGACCGGTTTTCCCGGTAATCCGTATTTGAC (site AAGGTGTCTGT)	1.02
AATGTGTCATGGACCGGTTTTCCCGGTAATCCGTATTTGAC (site AATATGTCTGT)	0.433
AATGTGTCATGGACCGGTTTTCCCGGTAATCCGTATTTGAC (site AATCTGTCTGT)	0
AATGTGTCATGGACCGGTTTTCCCGGTAATCCGTATTTGAC (site AATGAGTCTGT)	0
AATGTGTCATGGACCGGTTTTCCCGGTAATCCGTATTTGAC (site AATGCGTCTGT)	0
AATGTGTCATGGACCGGTTTTCCCGGTAATCCGTATTTGAC (site AATGGGTCTGT)	0
AATGTGTCATGGACCGGTTTTCCCGGTAATCCGTATTTGAC (site AATGTATCTGT)	1.2
AATGTGTCATGGACCGGTTTTCCCGGTAATCCGTATTTGAC (site AATGTCTCTGT)	0
AATGTGTCATGGACCGGTTTTCCCGGTAATCCGTATTTGAC (site AATGTGACTGT)	0.00331
AATGTGTCATGGACCGGTTTTCCCGGTAATCCGTATTTGAC (site AATGTGCCTGT)	0

Sequence	recombinant UMI read abundance (log10)
AATGTGTCATGGACCGGTTTTCCCGGTAATCCGTATTTGAC (site AATGTGGCTGT)	0
AATGTGTCATGGACCGGTTTTCCCGGTAATCCGTATTTGAC (site AATGTGTCTAT)	0.00893
AATGTGTCATGGACCGGTTTTCCCGGTAATCCGTATTTGAC (site AATGTGTCTCT)	0.028
AATGTGTCATGGACCGGTTTTCCCGGTAATCCGTATTTGAC (site AATGTGTCTGA)	0
AATGTGTCATGGACCGGTTTTCCCGGTAATCCGTATTTGAC (site AATGTGTCTGC)	0
AATGTGTCATGGACCGGTTTTCCCGGTAATCCGTATTTGAC (site AATGTGTCTGG)	0
AATGTGTCATGGACCGGTTTTCCCGGTAATCCGTATTTGAC (site AATGTGTCTGT)	1.77
AATGTGTCATGGACCGGTTTTCCCGGTAATCCGTATTTGAC (site AATGTGTCTTT)	0.181
AATGTGTCATGGACCGGTTTTCCCGGTAATCCGTATTTGAC (site AATGTTTCTGT)	0
AATGTGTCATGGACCGGTTTTCCCGGTAATCCGTATTTGAC (site AATTTGTCTGT)	0
AATGTGTCATGGACCGGTTTTCCCGGTAATCCGTATTTGAC (site ACTGTGTCTGT)	0
AATGTGTCATGGACCGGTTTTCCCGGTAATCCGTATTTGAC (site AGTGTGTCTGT)	0
AATGTGTCATGGACCGGTTTTCCCGGTAATCCGTATTTGAC (site ATTGTGTCTGT)	0.71
AATGTGTCATGGACCGGTTTTCCCGGTAATCCGTATTTGAC (site CATGTGTCTGT)	0.999
AATGTGTCATGGACCGGTTTTCCCGGTAATCCGTATTTGAC (site GATGTGTCTGT)	0
AATGTGTCATGGACCGGTTTTCCCGGTAATCCGTATTTGAC (site TATGTGTCTGT)	1.95
AATGTGTCATGGACCGGTTTTCCCGGTAATCCGTATTTGTC (site AATGTGTCTGA)	2.97
AATGTGTCATGGACCGGTTTTCCCGGTAATCCGTATTTGTC (site AATGTGTCTGC)	0.999
AATGTGTCATGGACCGGTTTTCCCGGTAATCCGTATTTGTC (site AATGTGTCTGG)	1.29
AATGTGTCATGGACCGGTTTTCCCGGTAATCCGTATTTGTC (site AATGTGTCTGT)	0.364
AATTACGCATGGACCGGTTTTCCCGGTAATCCGTATTTGGA (site AATTAAGCTTC)	0.428
AATTACGCATGGACCGGTTTTCCCGGTAATCCGTATTTGGA (site AATTACGCTTC)	0.807

Sequence	recombinant UMI read abundance (log10)
AATTACGCATGGACCGGTTTTCCCGGTAATCCGTATTTGGA (site AATTAGGCTTC)	0.158
AATTACGCATGGACCGGTTTTCCCGGTAATCCGTATTTGGA (site AATTATGCTTC)	0.344
AATTATGCATGGACCGGTTTTCCCGGTAATCCGTATTTGCA (site AATTATGCTTA)	0.00932
AATTATGCATGGACCGGTTTTCCCGGTAATCCGTATTTGCA (site AATTATGCTTC)	0.00784
AATTATGCATGGACCGGTTTTCCCGGTAATCCGTATTTGCA (site AATTATGCTTG)	1.85
AATTATGCATGGACCGGTTTTCCCGGTAATCCGTATTTGCA (site AATTATGCTTT)	0.00931
AATTCTGCATGGACCGGTTTTCCCGGTAATCCGTATTTGGA (site AATTATGCTTC)	0.384
AATTCTGCATGGACCGGTTTTCCCGGTAATCCGTATTTGGA (site AATTCTGCTTC)	0.349
AATTCTGCATGGACCGGTTTTCCCGGTAATCCGTATTTGGA (site AATTGTGCTTC)	0.0372
AATTCTGCATGGACCGGTTTTCCCGGTAATCCGTATTTGGA (site AATTTTGCTTC)	0.00758
AATTGGACATGGACCGGTTTTCCCGGTAATCCGTATTTGAC (site AATTGGACTGT)	1.21
AATTGGACATGGACCGGTTTTCCCGGTAATCCGTATTTGAC (site CATTGGACTGT)	0.955
AATTGGACATGGACCGGTTTTCCCGGTAATCCGTATTTGAC (site GATTGGACTGT)	0.231
AATTGGACATGGACCGGTTTTCCCGGTAATCCGTATTTGAC (site TATTGGACTGT)	1.67
AATTGTACATGGACCGGTTTTCCCGGTAATCCGTATTTGTC (site AATTGTACTGA)	0.692
AATTGTGCATGGACCGGTTTTCCCGGTAATCCGTATTTGAC (site AATTGTGCTGT)	2.25
AATTGTGCATGGACCGGTTTTCCCGGTAATCCGTATTTGCC (site AATTGTGCTGG)	0.735
AATTTAACATGGACCGGTTTTCCCGGTAATCCGTATTTGCT (site AATATAACTAG)	1.68
AATTTAACATGGACCGGTTTTCCCGGTAATCCGTATTTGCT (site AATCTAACTAG)	1.95
AATTTAACATGGACCGGTTTTCCCGGTAATCCGTATTTGCT (site AATGTAACTAG)	0.828
AATTTAACATGGACCGGTTTTCCCGGTAATCCGTATTTGCT (site AATTTAACTAG)	2.28
